Test results taken from PMC4583781, “Heteropentanuclear Oxalato-Bridged nd–4f (n=4, 5) Metal Complexes with NO Ligand: Synthesis, Crystal Structures, Aqueous Stability and Antiproliferative Activity” (Chemistry (Weinheim an Der Bergstrasse, Germany), 2015).

What was measured:
[1] = system: DLD-1 colon cancer model; set-up: method as in PMID 16343446, PMID 17445775; settings: cited from earlier work
[2] = system: MRC-5 cells (normal human fetal lung fibroblast); experiment: MTT assay, cytotoxicity in noncancerous MRC-5 cells; type: cell-based; settings: 48 h treatment, 5000 cells per well, read-out: IC50 MRC-5 (5000 c per w)
Method: (§1) Human cervical carcinoma (HeLa), human alveolar basal adenocarcinoma (A549), and normal human fetal lung fibroblast cell line (MRC-5) were maintained as monolayer culture in the Roswell Park Memorial Institute (RPMI) 1640 nutrient medium (Sigma Chemicals Co, USA). RPMI 1640 nutrient medium was prepared in sterile ionized water, supplemented with penicillin (192 IU mL^−1), streptomycin (200 μg mL^−1), 4-(2-hydroxyethyl)piperazine-1-ethanesulfonic acid (HEPES) (25 mM), L-glutamine (3 mM) and 10 % of heat-inactivated fetal calf serum (FCS; pH 7.2). The cells were grown at 37 °C in 5 % CO2 and humidified air atmosphere, by twice weekly subculture.
(§2) Antiproliferative activity of the ruthenium and osmium complexes was determined using 3-(4,5-dimethylthiazol-yl)-2,5-diphenyltetrazolium bromide (MTT, Sigma–Aldrich) assay.[49] Cells were seeded into 96-well cell culture plates (Thermo Scientific Nunc), at a cell density of 3000 cells per well (HeLa), 7000 cells per well (A549), and 5000 cells per well (MRC-5), in 100 μL of culture medium. After 24 h of growth, cells were exposed to the serial dilutions of the tested complexes. Complexes were dissolved in 1 % DMSO: complex 1 at a concentration of 4 mM, complexes 2–5 at a concentration of 1 mM, complexes 6–9 at a concentration of 0.6 mM, as stocks immediately prior use, and afterwards diluted with nutrient medium to desired final concentrations (in range up to 200 μM). Each concentration was tested in triplicate. After incubation periods of 48 h, 20 μL of MTT solutions (5 mg mL^−1 in phosphate buffer solution, pH 7.2) were added to each well. Samples were incubated for 4 h at 37 °C, with 5 % CO2 in a humidified atmosphere. Formazan crystals were dissolved in 100 μL of 10 % sodium dodecyl sulfate (SDS). Absorbances were recorded after 24 h, on an ELISA reader (ThermoLabsystems Multiskan EX 200–240 V), at the wavelength of 570 nm. The IC50 values, defined as the concentrations of the compound causing 50 % cell growth inhibition, were estimated from the dose-response curves.
(§3) The antiproliferative activity of the ruthenium and osmium lanthanide complexes 1–9 was evaluated for 48 h of continuous drug action, using colorimetric MTT assay. The study was performed in two human neoplastic cell lines (HeLa, A549), and human fetal lung fibroblast cell line (MRC-5), which was used as noncancerous model for in vitro toxicity evaluation. The results are shown in Table 5 in terms of IC50 values for 48 h incubation period. IC50 values are calculated as mean values obtained from two to three independent experiments and are presented with their standard deviations.

[3] = system: A549 cells (human alveolar basal adenocarcinoma); experiment: MTT assay, antiproliferative activity in A549 cells; type: cell-based; settings: 48 h treatment, 7000 cells per well, read-out: IC50 A549 (7000 c per w)
Method: as §1, §2, §3

[4] = system: HeLa cells (human cervical carcinoma); experiment: MTT assay, antiproliferative activity in HeLa cells; type: cell-based; settings: 48 h treatment, 3000 cells per well, read-out: IC50 HeLa (3000 c per w)
Method: as §1, §2, §3

[5] = Stability of pentanuclear assembly in aqueous solution, IR comparison of residue; type: physicochemical; settings: aqueous solution evaporated to dryness after standing 24 h in air
Method: To exclude immediate dissociation of the pentanuclear assembly with release of a metal–oxalate fragment an aqueous solution of 5 was evaporated to dryness after standing for 24 h in air and the IR spectra of the residue and freshly prepared compound 5 were compared.

[6] = Stability in aqueous solution by UV/Vis spectroscopy; type: physicochemical; settings: UV/Vis spectroscopy over 96 h
Method: Elemental analyses were performed by the microanalytical service of the Faculty of Chemistry of the University of Vienna on a Perkin–Elmer 2400 CHN Elemental Analyzer. UV/Vis spectra were recorded at 25 °C using a Perkin–Elmer Lambda 650 spectrometer equipped with an optical cell of 1 cm path-length in the wavelength range of 200 to 800 nm in combination with a Perkin–Elmer PTP-6 Peltier System. Electrospray ionization (ESI) mass spectrometry measurements were conducted on a Bruker HCT ion trap (Bruker Daltonics GmbH) by using methanol as a solvent. MIR spectra were recorded on a Perkin–Elmer 370 FTIR 2000 instrument using an ATR (attenuated total reflection) unit in the range of 4000–400 cm^−1. Phosphorescence emission spectra were recorded with a Horiba FluoroMax-4 spectrofluorimeter and the data were processed using the FluorEssence v3.5 software package.
The stability of the heteropentanuclear complexes 5 and 9 in aqueous solution has been investigated by UV/Vis spectroscopy over 96 h.

[7] = system: A549 cells; experiment: Total intracellular Ru/Os accumulation by ICP-MS; type: cell-based, human; settings: 6 and 24 h, 0.5×IC50 of complexes 4 and 8, ICP-MS, Ru (4) relative to Os (8)
[8] = system: cellular DNA of A549 cells; experiment: Ru/Os binding to cellular DNA by ICP-MS; type: cell-based, human; settings: 6 h treatment, 0.5×IC50, ICP-MS
[9] = system: cellular proteins of A549 cells; experiment: Ru/Os binding to cellular proteins by ICP-MS; type: cell-based, human; settings: 24 h versus 6 h, 0.5×IC50, ICP-MS

Compound	Efficacy against DLD-1 colon cancer model in vivo [1]	IC50 [2] [µM]	IC50 [3] [µM]	IC50 [4] [µM]	IR spectra of residue versus freshly prepared compound [5]	Stability in aqueous solution (change of optical spectra) [6]	Total intracellular accumulation of ruthenium versus osmium [7]	Metal (Ru/Os) bound to cellular DNA [8]	Change of metal-protein binding with treatment prolongation [9]
N#C[S-].N#C[S-].N#C[S-].[La+3].c1cnc2c(c1)ccc1cccnc12.c1cnc2c(c1)ccc1cccnc12.c1cnc2c(c1)ccc1cccnc12 [La(phen)3(NCS)3]	highly effective								
(nBu4N)2[RuCl3(ox)(NO)] [complex 1]		18.1 ± 6.5	55 ± 1.6	55.9 ± 5.6					
(nBu4N)5[Dy(EtOH){RuCl3(μ-ox)(NO)}4] [complex 5]		13.2 ± 0.4	47 ± 6.7	20 ± 2.1	no differences in the spectra observed	no change in the optical spectra observed			
(nBu4N)5[Gd(EtOH){RuCl3(μ-ox)(NO)}4] [complex 3]		11.1 ± 0.1	26.5 ± 4	29.1 ± 0.8					
(nBu4N)5[Tb(EtOH){RuCl3(μ-ox)(NO)4}] [complex 4]		11.9 ± 0.4	22.4 ± 3.1	20 ± 2.4			five- to eightfold greater	63.4(±1.8) pg metal μg^−1 DNA	increased to a great extent
(nBu4N)5[Y{OsCl3(μ-ox)(NO)}4] [complex 6]		115 ± 10.7	> 200	152 ± 24					
(nBu4N)5[Y{RuCl3(μ-ox)(NO)}4] [complex 2]		12 ± 0.3	56.3 ± 1.1	17.9 ± 0.4					
